# Measured values taken from US20020037885A1, “Therapeutic compounds” (priority 1999, published 2002).
# Assays:
# [1] = system: marble burying behaviour in mice; assay: Mouse Marble Burying Assay (BUR); format: in vivo; conditions: Mus musculus, sc; Table 3; read-out: BUR s.c. ED50
# Experimental: This assay was carried out essentially according to the procedure described by Treit et al. (1981) Pharmacol Biochem Behav; 15; 619-626.
# The results are presented as BUR ED50 (sc). This is the effective dose causing 50% inhibition of burying compared to control mice.
# [2] = system: hyperpolarisation-activated inward cation current Ih in dorsal root ganglion (DRG) cells; assay: Inhibition of hyperpolarisation-activated cation current (Ih), whole cell voltage clamp on cultured DRG cells; format: cell-based, rat; conditions: at 1E-5 M
# [3] = system: Ih channel; conditions: cited from earlier work
compound,measurement,setting,value
"C=CCC(N)c1ccccc1-c1noc2ncccc12.O=C(O)/C=C\C(=O)O (stereo not drawn) [16 (5), 2-(isoxazolo[5,4-b]pyridin-3-yl)-α-2-propenyl-benzenemethanamine (Z)-butenedioate]",ED50,[1],1.7 mg/kg
same,melting point,,187 to 188 °C (dec.)
same,"Ih amplitude, inhibition",[2],90% inhibition at 1E-5
"CCN(c1ccccc1)c1cc(NC)[n+](C)c(C)n1 [ZD7288, 4-(N-ethyl-N-phenylamino)-1,2-dimethyl-6-(methyiamino)-pyrimidinium-chloride]",IC50,"[3]; Harris and Constanti 1995, read-out: IC50 for blocking Ih",2 µM
[Ba] [barium],block of the Ih channel,[3]; 1 mM barium (Ba2+),not blocked
[Cs] [caesium],concentration blocking Ih,[3]; Pape 1996,1 to 5 mM
